Measured values taken from ChEMBL document CHEMBL5113447, “Synthesis of baicalein derivatives and evaluation of their antiviral activity against arboviruses” (Bioorg Med Chem Lett, 2022).

Tested on: Chikungunya virus
Assay: Antiviral activity against CHIKV infected in human Huh-7 cells assessed as inhibition of viral infection by measuring EGFP-positive cells measured 24 hrs post infection by fluorescent microscopic analysis
Type: functional, organism-based
Conditions: Huh-7, 24 h

SMILES	IC50 [µM]
O=c1cc(-c2ccc(N3CCN(c4cccc(Cl)c4)CC3)cc2)oc2cc(O)c(O)c(O)c12	4.3
Oc1c(O)c(O)c2c(=S)cc(-c3ccccc3)oc2c1-c1ccc(C(F)(F)F)cc1	2.7
O=c1cc(-c2ccccc2)oc2c(-c3ccc(OC(F)(F)F)cc3)c(O)c(O)c(O)c12	5.2
Oc1cc2oc(-c3ccccc3)cc(=S)c2c(O)c1O	7.6
Cc1ccc(-c2c(O)c(O)c(O)c3c(=O)cc(-c4ccccc4)oc23)cc1	7.9
O=c1cc(-c2ccccc2)oc2c(-c3ccc(F)cc3)c(O)c(O)c(O)c12	4.2
O=c1cc(-c2ccc(Nc3ccc(F)cc3)cc2)oc2cc(O)c(O)c(O)c12	4.8
O=c1cc(-c2ccccc2)oc2c(-c3ccccc3)c(O)c(O)c(O)c12	5.8
COc1c(OC)c(OC)c2c(=O)cc(-c3ccccc3)oc2c1-c1ccc(OC(F)(F)F)cc1	17.8
O=c1cc(-c2ccccc2)oc2c(-c3cccc(F)c3)c(O)c(O)c(O)c12	4.3
COc1cc2oc(-c3ccc(Nc4ccc(F)cc4)cc3)cc(=O)c2c(OC)c1OC	9.7
O=c1cc(-c2ccccc2)oc2c(-c3cc(F)cc(F)c3)c(O)c(O)c(O)c12	8.6
Cc1cccc(-c2c(O)c(O)c(O)c3c(=O)cc(-c4ccccc4)oc23)c1	8.7
O=c1cc(-c2ccc(N3CCN(c4ccc(O)cc4)CC3)cc2)oc2cc(O)c(O)c(O)c12	5.9
CN1CCN(c2ccc(-c3cc(=O)c4c(O)c(O)c(O)cc4o3)cc2)CC1	8.9
Oc1c(O)c(O)c2c(=S)cc(-c3ccccc3)oc2c1-c1ccc(F)cc1	4.7
O=c1cc(-c2ccc(Nc3ccc(Br)cc3)cc2)oc2cc(O)c(O)c(O)c12	5.2
COc1cc2oc(-c3ccccc3)cc(=S)c2c(OC)c1OC	9.7
Oc1c(O)c(O)c2c(=S)cc(-c3ccccc3)oc2c1-c1cccc(F)c1	9.7
O=c1cc(-c2ccc(Nc3ccc(Cl)cc3)cc2)oc2cc(O)c(O)c(O)c12	3.4
COc1cc2oc(-c3ccc(N4CCN(C)CC4)cc3)cc(=O)c2c(OC)c1OC	11.5
O=c1cc(-c2ccccc2)oc2cc(O)c(O)c(O)c12 [BAICALEIN]	16.9

Tested on: West Nile virus
Assay: Antiviral activity against WNV infected in human Huh-7 cells assessed as inhibition of viral infection measured 24 hrs post infection by immunofluorescent assay
Type: functional, organism-based
Conditions: Huh-7, 24 h

SMILES	IC50 [µM]
O=c1cc(-c2ccc(N3CCN(c4cccc(Cl)c4)CC3)cc2)oc2cc(O)c(O)c(O)c12	5.1
Oc1c(O)c(O)c2c(=S)cc(-c3ccccc3)oc2c1-c1ccc(C(F)(F)F)cc1	2.1
O=c1cc(-c2ccccc2)oc2c(-c3ccc(OC(F)(F)F)cc3)c(O)c(O)c(O)c12	6.4
O=c1cc(-c2ccccc2)oc2c(-c3ccc(F)cc3)c(O)c(O)c(O)c12	3.1
O=c1cc(-c2ccc(Nc3ccc(F)cc3)cc2)oc2cc(O)c(O)c(O)c12	4.5
O=c1cc(-c2ccccc2)oc2c(-c3ccccc3)c(O)c(O)c(O)c12	3.1
O=c1cc(-c2ccccc2)oc2c(-c3cccc(F)c3)c(O)c(O)c(O)c12	2.9
O=c1cc(-c2ccc(N3CCN(c4ccc(O)cc4)CC3)cc2)oc2cc(O)c(O)c(O)c12	6.6
Oc1c(O)c(O)c2c(=S)cc(-c3ccccc3)oc2c1-c1ccc(F)cc1	6.2
O=c1cc(-c2ccc(Nc3ccc(Br)cc3)cc2)oc2cc(O)c(O)c(O)c12	4.1
O=c1cc(-c2ccc(Nc3ccc(Cl)cc3)cc2)oc2cc(O)c(O)c(O)c12	2.4
O=c1cc(-c2ccccc2)oc2cc(O)c(O)c(O)c12 [BAICALEIN]	14.5

Tested on: West Nile virus
Assay: Antiviral activity against WNV infected in human Huh-7 cells assessed as inhibition of viral infection at 20 uM measured 24 hrs post infection by immunofluorescent assay relative to control
Type: functional
Conditions: not given

SMILES	inhibition at 20 µM [%]
Oc1cc2oc(-c3ccccc3)cc(=S)c2c(O)c1O	< 50
Cc1ccc(-c2c(O)c(O)c(O)c3c(=O)cc(-c4ccccc4)oc23)cc1	< 50
COc1c(OC)c(OC)c2c(=O)cc(-c3ccccc3)oc2c1-c1ccc(OC(F)(F)F)cc1	< 50
COc1cc2oc(-c3ccc(Nc4ccc(F)cc4)cc3)cc(=O)c2c(OC)c1OC	< 50
O=c1cc(-c2ccccc2)oc2c(-c3cc(F)cc(F)c3)c(O)c(O)c(O)c12	< 50
Cc1cccc(-c2c(O)c(O)c(O)c3c(=O)cc(-c4ccccc4)oc23)c1	< 50
CN1CCN(c2ccc(-c3cc(=O)c4c(O)c(O)c(O)cc4o3)cc2)CC1	< 50
COc1cc2oc(-c3ccccc3)cc(=S)c2c(OC)c1OC	< 50
Oc1c(O)c(O)c2c(=S)cc(-c3ccccc3)oc2c1-c1cccc(F)c1	< 50
COc1cc2oc(-c3ccc(N4CCN(C)CC4)cc3)cc(=O)c2c(OC)c1OC	< 50

Tested on: Zika virus
Assay: Antiviral activity against ZIKV infected in human Huh-7 cells assessed as inhibition of viral infection measured 24 hrs post infection by immunofluorescent assay
Type: functional, organism-based
Conditions: Huh-7, 24 h

SMILES	IC50 [µM]
O=c1cc(-c2ccc(N3CCN(c4cccc(Cl)c4)CC3)cc2)oc2cc(O)c(O)c(O)c12	5.7
Oc1c(O)c(O)c2c(=S)cc(-c3ccccc3)oc2c1-c1ccc(C(F)(F)F)cc1	3.8
O=c1cc(-c2ccccc2)oc2c(-c3ccc(OC(F)(F)F)cc3)c(O)c(O)c(O)c12	8.3
O=c1cc(-c2ccccc2)oc2c(-c3ccc(F)cc3)c(O)c(O)c(O)c12	2.5
O=c1cc(-c2ccc(Nc3ccc(F)cc3)cc2)oc2cc(O)c(O)c(O)c12	6.9
O=c1cc(-c2ccccc2)oc2c(-c3ccccc3)c(O)c(O)c(O)c12	5.8
O=c1cc(-c2ccccc2)oc2c(-c3cccc(F)c3)c(O)c(O)c(O)c12	3.5
O=c1cc(-c2ccc(N3CCN(c4ccc(O)cc4)CC3)cc2)oc2cc(O)c(O)c(O)c12	6.9
Oc1c(O)c(O)c2c(=S)cc(-c3ccccc3)oc2c1-c1ccc(F)cc1	7.7
O=c1cc(-c2ccc(Nc3ccc(Br)cc3)cc2)oc2cc(O)c(O)c(O)c12	6.7
O=c1cc(-c2ccc(Nc3ccc(Cl)cc3)cc2)oc2cc(O)c(O)c(O)c12	1.9
O=c1cc(-c2ccccc2)oc2cc(O)c(O)c(O)c12 [BAICALEIN]	19.6

Tested on: Zika virus
Assay: Antiviral activity against ZIKV infected in human Huh-7 cells assessed as inhibition of viral infection at 20 uM measured 24 hrs post infection by immunofluorescent assay relative to control
Type: functional
Conditions: not given

SMILES	inhibition at 20 µM [%]
Oc1cc2oc(-c3ccccc3)cc(=S)c2c(O)c1O	< 50
Cc1ccc(-c2c(O)c(O)c(O)c3c(=O)cc(-c4ccccc4)oc23)cc1	< 50
COc1c(OC)c(OC)c2c(=O)cc(-c3ccccc3)oc2c1-c1ccc(OC(F)(F)F)cc1	< 50
COc1cc2oc(-c3ccc(Nc4ccc(F)cc4)cc3)cc(=O)c2c(OC)c1OC	< 50
O=c1cc(-c2ccccc2)oc2c(-c3cc(F)cc(F)c3)c(O)c(O)c(O)c12	< 50
Cc1cccc(-c2c(O)c(O)c(O)c3c(=O)cc(-c4ccccc4)oc23)c1	< 50
CN1CCN(c2ccc(-c3cc(=O)c4c(O)c(O)c(O)cc4o3)cc2)CC1	< 50
COc1cc2oc(-c3ccccc3)cc(=S)c2c(OC)c1OC	< 50
Oc1c(O)c(O)c2c(=S)cc(-c3ccccc3)oc2c1-c1cccc(F)c1	< 50
COc1cc2oc(-c3ccc(N4CCN(C)CC4)cc3)cc(=O)c2c(OC)c1OC	< 50

Tested on: not listed separately
Assay: Cytotoxicity against human Huh-7 cells assessed as reduction in cell viability incubated for 24 hrs by CCK-8 assay
Type: toxicity, cell-based
Conditions: not given

SMILES	CC50 at 24 h [µM]
O=c1cc(-c2ccc(N3CCN(c4cccc(Cl)c4)CC3)cc2)oc2cc(O)c(O)c(O)c12	> 100
Oc1c(O)c(O)c2c(=S)cc(-c3ccccc3)oc2c1-c1ccc(C(F)(F)F)cc1	> 100
O=c1cc(-c2ccccc2)oc2c(-c3ccc(OC(F)(F)F)cc3)c(O)c(O)c(O)c12	> 100
Oc1cc2oc(-c3ccccc3)cc(=S)c2c(O)c1O	> 100
Cc1ccc(-c2c(O)c(O)c(O)c3c(=O)cc(-c4ccccc4)oc23)cc1	> 100
O=c1cc(-c2ccccc2)oc2c(-c3ccc(F)cc3)c(O)c(O)c(O)c12	> 100
O=c1cc(-c2ccc(Nc3ccc(F)cc3)cc2)oc2cc(O)c(O)c(O)c12	> 100
O=c1cc(-c2ccccc2)oc2c(-c3ccccc3)c(O)c(O)c(O)c12	86.3
COc1c(OC)c(OC)c2c(=O)cc(-c3ccccc3)oc2c1-c1ccc(OC(F)(F)F)cc1	> 100
O=c1cc(-c2ccccc2)oc2c(-c3cccc(F)c3)c(O)c(O)c(O)c12	> 100
COc1cc2oc(-c3ccc(Nc4ccc(F)cc4)cc3)cc(=O)c2c(OC)c1OC	77.6
O=c1cc(-c2ccccc2)oc2c(-c3cc(F)cc(F)c3)c(O)c(O)c(O)c12	> 100
Cc1cccc(-c2c(O)c(O)c(O)c3c(=O)cc(-c4ccccc4)oc23)c1	> 100
O=c1cc(-c2ccc(N3CCN(c4ccc(O)cc4)CC3)cc2)oc2cc(O)c(O)c(O)c12	> 100
CN1CCN(c2ccc(-c3cc(=O)c4c(O)c(O)c(O)cc4o3)cc2)CC1	> 100
Oc1c(O)c(O)c2c(=S)cc(-c3ccccc3)oc2c1-c1ccc(F)cc1	> 100
O=c1cc(-c2ccc(Nc3ccc(Br)cc3)cc2)oc2cc(O)c(O)c(O)c12	> 100
COc1cc2oc(-c3ccccc3)cc(=S)c2c(OC)c1OC	> 100
Oc1c(O)c(O)c2c(=S)cc(-c3ccccc3)oc2c1-c1cccc(F)c1	> 100
O=c1cc(-c2ccc(Nc3ccc(Cl)cc3)cc2)oc2cc(O)c(O)c(O)c12	> 100
COc1cc2oc(-c3ccc(N4CCN(C)CC4)cc3)cc(=O)c2c(OC)c1OC	> 100
O=c1cc(-c2ccccc2)oc2cc(O)c(O)c(O)c12 [BAICALEIN]	> 100

Tested on: Chikungunya virus
Assay: Potency index, ratio of baicalein IC50 to test compound IC50 for antiviral activity against CHIKV infected in human Huh-7 cells assessed as inhibition of viral infection by measuring EGFP-positive cells measured 24 hrs post infection by fluorescent microscopic analysis
Type: functional
Conditions: not given

SMILES	Ratio IC50
Oc1c(O)c(O)c2c(=S)cc(-c3ccccc3)oc2c1-c1ccc(C(F)(F)F)cc1	>5
O=c1cc(-c2ccc(Nc3ccc(Cl)cc3)cc2)oc2cc(O)c(O)c(O)c12	>5

Tested on: West Nile virus
Assay: Potency index, ratio of baicalein IC50 to test compound IC50 for antiviral activity against WNV infected in human Huh-7 cells assessed as inhibition of viral infection measured 24 hrs post infection by immunofluorescent assay
Type: functional
Conditions: not given

SMILES	Ratio IC50
Oc1c(O)c(O)c2c(=S)cc(-c3ccccc3)oc2c1-c1ccc(C(F)(F)F)cc1	>6
O=c1cc(-c2ccc(Nc3ccc(Cl)cc3)cc2)oc2cc(O)c(O)c(O)c12	>6

Tested on: Zika virus
Assay: Potency index, ratio of baicalein IC50 to test compound IC50 for antiviral activity against ZIKV infected in human Huh-7 cells assessed as inhibition of viral infection measured 24 hrs post infection by immunofluorescent assay
Type: functional
Conditions: not given

SMILES	Ratio IC50
Oc1c(O)c(O)c2c(=S)cc(-c3ccccc3)oc2c1-c1ccc(C(F)(F)F)cc1	>5
O=c1cc(-c2ccccc2)oc2c(-c3ccc(F)cc3)c(O)c(O)c(O)c12	>5
O=c1cc(-c2ccccc2)oc2c(-c3cccc(F)c3)c(O)c(O)c(O)c12	>5
O=c1cc(-c2ccc(Nc3ccc(Cl)cc3)cc2)oc2cc(O)c(O)c(O)c12	>5
